Assay in all cases: inhibition of tumour cell growth, NCI panel, 48 h
Assay [1] concerns NCI-H460 lung.
Assay [2] relates to SR leukemia.
Assay [3] has as its system MCF7 breast.
Assay [4] relates to OVCAR-4 ovarian.
For assay [5], the system named is SNB-19 CNS.
For assay [6], the system named is HCT-15 colon.
Assay [7] deals with HL-60(TB) leukemia.
For assay [8], the system named is T-47D breast.
The test system of assay [9] is M14 melanoma.
Assay [10] concerns HT29 colon.
The subject of assay [11] is A498 renal.
Assay [12] concerns IGROV1 ovarian.
Assay [13] concerns MDA-MB-435.
The test system of assay [14] is HCC-2998 colon.

SMILES strings stand for the structures.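 Briefly, cells in 96-well plates were exposed to five compound concentrations for 48 h, and endpoints were estimated by linear interpolation. At the TGI there is no net growth.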

On to `O=[S@]1c2ccc3ccccc3c2N[C@@H]2[C@H]1[C@H]1C=C[C@@H]2C1`, for which the TGI in assay [1], in [2], in assay [3], in [4], in assay [5] and in assay [6] was more than 100 µM throughout. Moreover, the TGI in [7] was 63 µM; in assay [8] it was more than 100 µM; in [9], more than 100 µM; in assay [10], more than 100 µM; in assay [11], more than 100 µM; in assay [12], more than 100 µM. The compound further had a TGI in [13] of 99.6 µM.

As to `COc1ccccc1C(O)[C@@H]1C[C@@H]2[C@H]3CC[C@@](C)([C@@H]2O1)C3(C)C` (stereo not given in full), the TGI was determined as 36.3 µM in assay [1]; 48.3 µM in assay [2]; 41.8 µM in assay [14]; 41.7 µM in assay [3]; 39 µM in assay [5]; 57.7 µM in assay [6]. In addition, the TGI amounted to 49.1 µM in [7]; 41.3 µM in assay [8]; 40.1 µM in assay [9]; 39.1 µM in [10]; 29.5 µM in [11]; 31.2 µM in [12]. In assay [13], this compound showed a TGI of 34.4 µM.

In the case of `CCOC(=O)/C=C(/C(=O)OCC)n1ccc(=O)n(Cc2cnnn2COCCOC(C)=O)c1=O`, the TGI in assay [1] is more than 65 µM; in assay [2], 45.7 µM; in assay [14], 31.5 µM; in assay [3] it was 27.7 µM; in [4], 41.5 µM; in assay [5], more than 31.6 µM. For the same compound, the TGI in [6] is 31 µM; in assay [8] it was 29.2 µM; in [9], 38.8 µM; in assay [10], 32 µM; in [11], 65 µM; in [12], 39.3 µM. Also, in [13], the TGI was 32.5 µM.

Take `O=[N+]([O-])c1ccc(-n2nc3ccc4c(no[n+]4[O-])c3n2)cc1`: the TGI in assay [1], in assay [2], in assay [14], in [3], in [4] and in assay [5] was more than 100 µM in each case. In addition, the TGI in [6], in assay [7], in [8], in assay [9], in [10] and in [12] was more than 100 µM in each case. Moreover, the TGI in [13] was more than 100 µM.

In the case of `O=C1CC(CC(=O)c2ccc(Br)cc2)C(=O)/C1=C(/O)c1ccc(Br)cc1` (stereo not given), the TGI in [1], in assay [2], in [14], in [3], in [5] and in assay [6] was more than 100 µM each time. Also, the TGI in [7], in [8], in [9], in assay [10], in assay [11] and in assay [12] was more than 100 µM in each case. In assay [13], this compound showed a TGI of more than 100 µM.

In the case of `COc1cccc(C2c3cc4c(cc3OC(NNS(=O)(=O)c3ccc(C)cc3)C2C)OCO4)c1OC` (stereo not given), the TGI in assay [1] was 8.64 µM; in assay [2] it was 3.29 µM; in [14], more than 100 µM; in [3], 79.5 µM; in assay [5] it was 86.6 µM; in [6] it was 9.82 µM. The TGI in assay [7] is 3.28 µM; in [8], more than 100 µM; in assay [9] it was more than 100 µM; in assay [10] it was 13.9 µM; in [11], 6.42 µM; in assay [12], 15.3 µM. Moreover, in assay [13], the TGI was more than 100 µM.

In the case of `C=C1C(=O)O[C@H]2C1C[C@@H](OC(C)=O)/C(C)=C/CC[C@@]1(C)O[C@H]21` (stereo not given in full), the TGI in assay [1] was more than 100 µM; in assay [2] it was 20.1 µM; in [14], 27.9 µM; in assay [3], 23.4 µM; in [4], 28.9 µM; in assay [5] it was 78 µM. Moreover, the TGI in [6] was found to be 22.9 µM; in assay [8], 21.5 µM; in [9] it was 16.1 µM; in assay [10], 41.5 µM; in [12] it was 21.2 µM; in assay [13], 87.7 µM.

Consider `CCC(C)[C@@H](Nc1c(O)c2c(c(O)c1Cl)C(=O)C=CC2=O)C(=O)OC` (stereo not given in full), for which the TGI is more than 10 µM in assay [1]; 4.49 µM in assay [2]; more than 10 µM in [14]; more than 10 µM in assay [3]; 8.12 µM in assay [4]; more than 10 µM in [5]. The TGI in [6] is more than 10 µM; in assay [7] it was 5.93 µM; in assay [8], more than 10 µM; in assay [9], 9.41 µM; in [10], more than 10 µM; in assay [12] it was more than 10 µM. Besides, the TGI in assay [13] is more than 10 µM.

For `COC(=O)CCNC(=O)OCc1ccccc1`, the TGI in [1], in assay [2], in assay [14], in assay [3], in assay [5] and in [6] was more than 100 µM in each case. Further, the TGI in assay [7], in assay [8], in [9], in assay [10], in assay [11] and in assay [12] was more than 100 µM throughout. Besides, the TGI in [13] was more than 100 µM.

Take `CN(C)c1c(C2OC(CO)C(O)C2O)c(=O)c1=O` (stereo not given): the TGI in assay [1], in assay [2], in assay [14], in [3], in assay [4] and in assay [5] was more than 100 µM in each case. In addition, the TGI in assay [6], in assay [8], in assay [9], in assay [10], in assay [11] and in [12] was more than 100 µM each time. This compound had a TGI in [13] of more than 100 µM.

With `C=CC1CN(C(=O)OCC)N(C(=O)OCC)C1CCc1ccccc1` (stereo not given), the TGI in assay [1], in assay [2], in assay [14], in assay [3], in assay [4] and in assay [5] was more than 100 µM throughout. The TGI in assay [6], in [7], in [8], in assay [9], in assay [10] and in assay [12] was more than 100 µM in each case. This compound also had a TGI in [13] of more than 100 µM.

For the compound `OC(CN(CCCl)CCCl)C(O)C(O)C(O)CN(CCCl)CCCl` (stereo not given), the TGI in [1], in assay [2], in [14], in [3], in assay [5] and in assay [6] was more than 100 µM throughout. Moreover, the TGI in assay [7], in [8], in assay [9], in [10], in assay [11] and in [12] was more than 100 µM each time. Also, in assay [13], the TGI is more than 100 µM.

In the case of `COC1CC(OC2C(C)OC(OC3C(C)OC(OC4C(C)OC(O[C@H]5CC[C@@]6(C)C(=CC[C@]7(O)[C@@H]6C[C@@H](OC(C)=O)[C@@]6(C)[C@]7(O)CC[C@@]6(O)C(C)=O)C5)CC4OC)CC3OC)CC2OC)OC(C)C1O` (stereo not given in full), the TGI in assay [2], in assay [14], in [3], in assay [4], in assay [5] and in assay [6] was more than 25 µM each time. For the same compound, the TGI in [7], in assay [8], in assay [9], in [10], in [12] and in assay [13] was more than 25 µM throughout.

Regarding `Cc1ccc(C)n2c1nc1ccccc12`, the TGI in assay [1], in [2], in [14], in assay [3], in [5] and in assay [6] was more than 100 µM each time. The TGI in assay [7] is more than 100 µM; in assay [8], more than 100 µM; in assay [9], more than 100 µM; in assay [10] it was more than 100 µM; in assay [11], 33.7 µM; in [12] it was more than 100 µM. Moreover, the TGI in assay [13] is more than 100 µM.

With `O=C1Nc2nccnc2C(=O)N2CCC[C@@H]12`, the TGI in assay [1], in assay [2], in assay [14], in assay [3], in assay [4] and in assay [5] was more than 100 µM in each case. In addition, the TGI in assay [6], in assay [7], in [8], in [9], in assay [10] and in [12] was more than 100 µM throughout. Moreover, in [13], the TGI was more than 100 µM.

Regarding `CCOC(=O)c1nc2ccc(C(F)(F)F)cc2nc1NCc1ccc(OC)c(OC)c1`, the TGI in assay [1], in assay [2], in [3], in [4], in [5] and in assay [6] was more than 100 µM in each case. Moreover, the TGI in assay [7], in assay [8], in assay [9], in assay [10], in assay [11] and in [12] was more than 100 µM each time. Also, in assay [13], the TGI is more than 100 µM.

Consider `COc1c(C(=O)NCCN(CCNC(=O)c2cccc(-c3cccc(C(=O)N(C)C)c3OC)c2OC)CCNC(=O)c2cccc(-c3cccc(C(=O)N(C)C)c3OC)c2OC)cccc1-c1cccc(C(=O)N(C)C)c1OC`, for which the TGI in [1] is more than 100 µM; in [2], 71.5 µM; in assay [14], 33.1 µM; in [3] it was 78 µM; in [4], 84 µM; in [5], more than 100 µM. The TGI in assay [6] is more than 100 µM; in assay [7] it was 69.5 µM; in assay [8], more than 100 µM; in assay [9] it was more than 100 µM; in assay [10] it was more than 100 µM; in assay [12], more than 100 µM. Besides, the TGI in assay [13] is 39.8 µM.

Take `O=Cc1cc(C(=O)OCc2ccccc2)n(S(=O)(=O)c2ccccc2)c1`: the TGI in assay [1] is 70.2 µM; in assay [2], more than 100 µM; in [14], 33.7 µM; in assay [3] it was 67.2 µM; in [4] it was more than 100 µM; in assay [5] it was more than 100 µM. Further, the TGI is 50.7 µM in [6]; 63 µM in assay [7]; more than 100 µM in assay [8]; 36.2 µM in assay [9]; 48.4 µM in assay [10]; 84 µM in [12]. In addition, the TGI in [13] turned out to be 12.9 µM.

In the case of `O=C(c1ccccc1)N1CCC(CC2(c3cc4ccccc4[nH]3)OCCO2)CC1`, the TGI in assay [1] was more than 100 µM; in [2], more than 100 µM; in assay [3], 43.9 µM; in [4], more than 100 µM; in assay [5], more than 100 µM; in assay [6], more than 100 µM. The TGI in assay [8] was more than 100 µM; in assay [9], 39.6 µM; in assay [10], 85.9 µM; in assay [11] it was 62.8 µM; in assay [12] it was more than 100 µM; in [13], 51 µM.

In the case of `CCOP(=O)(OCC)C(NC(=O)C(C(F)(F)F)C(F)(F)F)c1ccccc1` (stereo not given), the TGI in [1], in assay [2], in assay [14], in [3], in assay [4] and in [5] was more than 100 µM in each case. For the same compound, the TGI in [6] is more than 100 µM; in assay [7], 67.9 µM; in assay [8], more than 100 µM; in assay [9], more than 100 µM; in assay [10], more than 100 µM; in assay [12], more than 100 µM. This compound also returned a TGI in assay [13] of more than 100 µM.

`CCc1ccc(COC(=O)C2=C(C)NC(C)=C(C(=O)OCc3ccc(CC)cn3)C2C2=COCCO2)nc1`: the TGI in [1] is 91.3 µM; in [2], more than 100 µM; in assay [14] it was 37.7 µM; in assay [3] it was 43 µM; in assay [4], 66.9 µM; in assay [5], 54.5 µM. In addition, the TGI in assay [6] was 71.4 µM; in [7], 66.7 µM; in assay [8], 36.1 µM; in [9], 31.1 µM; in assay [10], 43.7 µM; in assay [12], more than 100 µM. In addition, the TGI in assay [13] stood at 38.3 µM.

Source of the values: PubChem BioAssay (NCI).
